Reference: patent publication US20220062310A1, “[…] PATIENTS WITH OBSESSIVE-COMPULSIVE DISORDER” (YALE UNIVERSITY, priority 2020, published 2022)

Legend:
[1] = test system: patients with treatment resistant OCD; assay: Same OCD study: depression scores (Montgomery-Asberg Depression Rating Scale); format: in vivo, human; details: single dose 0.25 mg/kg; scores not high in most subjects
Source text: (§1) Research Materials and Measures: Participants can complete self-report and clinician-administered measures of OCD symptoms, anxiety, depression, quality of life, and spirituality at baseline, prior to psilocybin session, and during all designated study visits. […]

[2] = test system: patients with treatment resistant OCD; assay: Same OCD study: state and trait anxiety scores (STAI); format: in vivo, human; details: single dose 0.25 mg/kg
Source text: as §1

[3] = test system: serotonin 5-hydroxytryptamine (5-HT) receptors; details: after conversion in the body to psilocin; most affinity to 5-HT2A and 5-HT2C, lesser to 5-HT1A; cited from earlier work
[4] = test system: OCD symptoms; details: low doses (2 mg-4 mg); cited from earlier work
[5] = test system: rats; details: cited from earlier work
[6] = test system: mice; details: cited from earlier work
[7] = test system: humans; details: pure psilocybin; cited from earlier work
[8] = test system: humans; details: oral doses of up to 0.6 mg/kg; cited from earlier work
[9] = test system: study participants; details: cited from earlier work
[10] = non-medical use as mushrooms; cited from earlier work
[11] = test system: humans; assay: Estimated lethal dose of pure psilocybin in humans; details: 0.25 mg/kg versus LD50 in nonhuman animals and in humans
[12] = test system: patients with treatment resistant OCD; assay: Double-blind, placebo controlled study of psilocybin in OCD (NCT03356483): acute-YBOCS / YBOCS

CN(C)CCc1c[nH]c2cccc(OP(=O)(O)O)c12 [psilocybin, 3-(2-dimethylaminoethyl)-1H-indol-4-yl] dihydrogen phosphate]
depression scores (MADRS, FIG. 5) [1]: improved after psilocybin in several subjects | state anxiety scores (FIG. 6) [2]: improved in those subjects whose OCD symptoms also improved | action at 5-HT receptors [3]: partial agonist | acute effect on OCD symptoms [4]: acutely attenuated OCD symptoms even after low doses | LD50 [5]: 285 mg/kg | LD50 [6]: 285 mg/kg | best estimate of a lethal dose [7]: about 19 grams | serious adverse events [8]: no serious adverse events | reactions requiring pharmacological intervention ([9]; 30 mg psilocybin): no reactions requiring pharmacological intervention occurred | rates of prolonged psychiatric symptoms of any kind following exposure ([9]; healthy study participants): 0.08-0.09% | participants with distress sufficient to contact the researchers ([9]; meta-analysis, 110 research participants (1 participant)): 0.9% | participants who endorsed negative changes in psychological well-being ([9]; meta-analysis, 110 research participants): 7 participants | duration of common acute side effects ([9]; most effects): last no longer than six hours | adverse events associated with drug administration ([9]; over 2000 participants under controlled conditions): no reports of the occurrence of a significance of adverse events | subjects with persistent perceptual symptoms associated with HPPD ([9]; review of studies 1999 to 2008, mild, brief, resolved within three days): one subject (out of 110) | share of drug-related emergency department visits that mention it [10]: 0.1% | full study dose relative to LD50 [11]: over 100 times smaller | improvement in OCD symptoms after psilocybin in subjects who had previously received placebo (FIG. 4) ([12]; open-label, one of three subjects, 12 weeks follow-up): robust and lasting improvement in symptoms | persistence of the improvement in symptoms ([12]; single dose 0.25 mg/kg, the three improved subjects): 12 weeks | improvement in OCD symptoms (YBOCS, FIG. 2 and 3) ([12]; single dose 0.25 mg/kg, three of the subjects receiving psilocybin): robust improvement in symptoms | acute-YBOCS score (M) at 48-hours after drug administration ([12]; single oral dose 0.25 mg/kg, N=5, baseline M=25.5 (18 to 29), SD=11.52, t(3)=2.71, p=0.036): 15
